Source: US9403916B2, “Polysaccharide-and polypeptide-based block copolymers, vesicles constituted by these copolymers and use thereof” (priority 2008, dated 2016)

Experiments:
[1] = test system: cells of rat glioma C6; assay: Cellular viability (toxicity) MTT test; assay type: cell-based; settings: 48 h, read-out: IC50 (concentration for which half of the cells remain viable)
Description: Experiments of toxicity and release in vitro were performed using vesicles based on hyaluronic acid-block-poly(γ-benzyl L-glutamate) diblock copolymer prepared in Example 6, containing 11% of doxorubicin. The in-vitro experiments were performed on cells of rat glioma C6, in Dulbecco's modified Eagle's medium (DMEM) containing 5% of foetal calf serum. The C6 cells (5×10^5 cells) are placed in bottles of 10 cm diameter and are grown in 10 ml of culture medium containing penicillin (10000 μg/mL), streptomycin (10000 μg/mL) and amphotericin B (25 μg/mL) [Invitrogen Corporation] in an incubator at 37° C. in a controlled atmosphere with 5% CO2. For the tests of cellular viability (or toxicity), C6 cells were incubated in a 24-well plate (15×10^4 cells per well), for 24 h. Viability was determined by a conventional test with tetrazolium salt MTT (3-(4,5-dimethylthiazol-2-yl)-2,5-diphenyl tetrazolium bromide). The tetrazolium that it contains is reduced to formazan by the mitochondrial succinate dehydrogenase of the active living cells. The colour of the medium then changes from yellow to purplish-blue. The intensity of this coloration is proportional to the number of living cells present during the test. Analysis is performed by spectrophotometry (U-2800A, HITACHI), measuring the absorbance at 570 nm. […]

[2] = test system: DMBA-induced tumour in female Sprague-Dawley rats; assay: Antitumour efficacy in DMBA-induced tumour, tumour regression and survival; assay type: in vivo; settings: rat, single intravenous dose 5 mg/kg doxorubicin
Description: Female Sprague-Dawley rats aged 8 weeks (120-140 g) were used in a study of tumour regression.
7,12-dimethylbenz[α]anthracene (DMBA) was administered orally (in soya oil) to the animals in 3 doses of 45 mg/kg at one-week intervals, to generate the tumour.
The treatment with doxorubicin was given 10 weeks after the last dose of DMBA. The width of the tumour (w) and its length (l) were recorded with callipers and the size of the tumour was calculated from the formula (w×l^2/2).
After 10 weeks from tumour induction, the animals with tumours were separated and divided randomly into different treatment groups, then treated with a single dose of 250 μl of doxorubicin by intravenous route at 5 mg/kg, either in the form of free doxorubicin, or in the form of doxorubicin encapsulated in the micellar vesicles of Example 6.
The control group received a single dose of 250 μl of PBS buffer (pH 7.4) by the intravenous route.
The study was terminated […] after treatment.
Observation of the survival of the animals with a tumour, which were treated, was continued until 60 days after treatment.

COc1cccc2c1C(=O)c1c(O)c3c(c(O)c1C2=O)C[C@@](O)(C(=O)CO)C[C@@H]3O[C@H]1C[C@H](N)[C@H](O)[C@H](C)O1 [free doxorubicin, doxorubicin]
IC50 [1]: 840 nM | tumour growth in comparison with control group treated with PBS [2]: significantly inhibit tumour growth | tumour regression after 15 days of treatment [2]: regression reaches a plateau
